Measured values reported in patent US9896423B2, “Deuterium substituted 1-[2-(2,4-dimethyl-phenylsulfanyl)-phenyl]piperazine compound or derivatives thereof, and pharmaceutical composition and use thereof” (Jiangsu Jibeier Pharmaceutical Co. Ltd., priority 2014, dated 2018).
“And” between values parts separate entries of the source, which are not always exact repeats. Equal entries are not always repeated. Structures can show the parent of a compound that is named as a salt. Where two headings read alike, the source gives them in different places.

How the values were obtained:
[1] = system: Male ICR mice; test: Mice swimming test; type: in vivo; conditions: for effect on length of time that the mice stopped swimming vs blank control: two successive weeks; for Duration without Movement within the Last 4 min of the Whole 6 min: mice, gavage once a day for 14 days, n = 10, x ± s
Source text: The following method is used for testing the antidepression effect of the compound of the present application. ICR mice or SD rats, gavaged for two successive weeks, were subjected to mice swimming test, mice tail suspension test and rats swimming test. See below for details of the tests and results.
Male ICR mice weighing 18 g to 20 g were used. They were fed on sterilized standard feed.
The compound administered in the test was 1-{2-[2,4-bis(trideuteriomethyl)phenylsulfanyl]phenyl}piperazine hydrobromic acid salt (XX for short). Vortioxetine (YY for short) was used as a control sample. Venlafaxine HCl (from Wyeth, USA) was used as a positive control.
Vortioxetine (15 mg) was combined with 10% hydroxypropyl-β-cyclodextrin to form a solution of 100 mL and was administered at daily dose of 3 mg/kg. 1-{2-[2,4-bis(trideuteriomethyl)phenylsulfanyl]phenyl}piperazine hydrobromic acid salt (15 mg and 7.5 mg) was combined with 10% hydroxypropyl-β-cyclodextrin to form two solutions of 100 mL and was administered at daily doses of 3 mg/kg and 1.5 mg/kg, respectively. Venlafaxine HCl (75 mg) was combined with 0.5% CMC-Na to form a solution of 100 mL and was administered at daily dose of […].
A recording and analysis system for small-animal behavior (Noldus) was used.
All the eighty mice were subjected to prescreening one day before the administration. The mice, fasted for 4 hours were put in a round glass tank (ø 14 cm×h 20 cm, with water of 10 cm depth and at a temperature of 25° C.) to swim. […] The whole swimming course was recorded by the video and the data were collected and analyzed automatically by Noldus software.
The forty qualified mice were divided into 4 groups, each of which had 10 mice, according to the Excel random grouping.
The medicaments were administered to each group by gavage with the amount of 0.2 ml per 10 g of body weight, once a day for 14 successive days. One hour later after the last oral administration, the mice were allowed to swim for 6 min. The video recorded the whole swimming course, and the Noldus software automatically collected and analyzed the data.
The data was given as “average±standard deviation” (x±s). One-way analysis of variance (one-way ANOVA) was used for data difference statistics. Differences among the groups were determined by P<0.05.

[2] = Pharmacokinetic test in rats, intravenous injection; type: in vivo, SD rats; conditions: 2 mg/kg iv; for concentration at 0.05 h / concentration at 0.133 h / concentration at 4 h / concentration at 6 h / concentration at 9 h / concentration at 12 h / concentration at 24 h: male, SD, rat, plasma, intravenous, 2 mg/kg
Experimental: The preferred compound of the present disclosure was assessed in rats for its pharmacokinetic profile.
SD rats, male and female, weighing 150 to 250 g
Mobile phase: 10 mM ammonium formate aqueous solution:methanol=15:85
The ionization source was electrospray ionization source. The detection mode was positive mode. Multiple reaction monitoring (MRM) was used as the scanning mode. The ion reaction for the quantitative analysis was the following: m/z was 305.2\150.0 for XX, and 256.1\167.1 for diphenhydramine (the internal standard).
Four male SD rats were taken. The dosage was calculated as 5 mL/kg body weight and 2 mg/kg. XX or YY was dissolved in DMSO (3% of a total volume) and castor oil (3% of the total volume) was added to the solution, followed by agitating with a vortex mixer. Subsequently, saline was added to the mixture to the total volume to afford the intravenous injection for the rats. The injections were intravenously administered to four male SD rats. Blood from the rats' orbits was collected 3 min, 8 min, 15 min, 30 min, 1 hr, 2 hr, 3 hr, 4 hr, 6 hr, 9 hr, 12 hr and 24 hr later after the injection, respectively.
After the blood collection, the tubes were immediately gently turned upside down at least five times to ensure sufficient mixing, and placed on ice. Heparin was added for anticoagulation. The samples were centrifuged at 8000 rpm for 5 min to separate serum from erythrocyte. The serum was transferred with a pipettor to 2 mL polypropylene (PP) tubes, which were marked with the name of the compound and the time points, and stored in a refrigerator at −40° C. before LC-MS analysis. Samples with high concentrations were diluted with rat blank plasma.
2.5 μL of Meth-H2O and 5 μL of the internal standard solution (20 ng/mL, IS) were added to 50 μL of the plasma. Subsequently, 150 μL of methanol was added to the mixture to precipitate protein and the samples were then centrifuged at 13000 rpm for 5 min. The upper organic phase was taken out, filtrated with a 0.22 μM microporous membrane, and 2 μL of the sample was injected for the LC-MS analysis.

Concentrations in Plasma of Rats after Intravenous Injection ([2]; 0.133 h, individual rats): 89.0 ng/mL and 85.9 ng/mL and 86.8 ng/mL
Concentrations in Plasma of Rats after Intravenous Injection ([2]; 0.25 h, individual rats): 78.8 ng/mL and 77.3 ng/mL and 77.1 ng/mL
Concentrations in Plasma of Rats after Intravenous Injection ([2]; 0.5 h, individual rats): 76.9 ng/mL and 71.3 ng/mL and 75.8 ng/mL
Concentrations in Plasma of Rats after Intravenous Injection ([2]; 1 h, individual rats): 73.3 ng/mL and 68.6 ng/mL and 65.6 ng/mL
Concentrations in Plasma of Rats after Intravenous Injection ([2]; 2 h, individual rats): 69.5 ng/mL and 68.1 ng/mL and 54.4 ng/mL
Concentrations in Plasma of Rats after Intravenous Injection ([2]; 3 h, individual rats): 53.4 ng/mL and 49.8 ng/mL and 38.2 ng/mL
Concentrations in Plasma of Rats after Intravenous Injection ([2]; 4 h, individual rats): 38.5 ng/mL and 27.6 ng/mL and 25.1 ng/mL
Concentrations in Plasma of Rats after Intravenous Injection ([2]; 6 h, individual rats): 28.4 ng/mL and 25.8 ng/mL and 24.5 ng/mL
Concentrations in Plasma of Rats after Intravenous Injection ([2]; 9 h, individual rats): 16.1 ng/mL and 18.6 ng/mL and 14.1 ng/mL
Concentrations in Plasma of Rats after Intravenous Injection ([2]; 12 h, individual rats): 7.86 ng/mL and 7.50 ng/mL and 7.18 ng/mL
Concentrations in Plasma of Rats after Intravenous Injection ([2]; 24 h, individual rats): 2.57 ng/mL and 2.89 ng/mL and 3.68 ng/mL
concentration at 0.05 h ([2]; 0.05 h, mean, read-out: Concentrations in Plasma of Rats after Intravenous Injection, Mean ± SD): 126 ± 5.68 ng/mL
concentration at 0.05 h ([2]; 0.05 h after administration, individual rats, read-out: Concentrations in Plasma of Rats after Intravenous Injection): 134 ng/mL
concentration at 0.133 h ([2]; 0.133 h, individual rats, read-out: Concentrations in Plasma of Rats after Intravenous Injection): 86.5 ng/mL
concentration at 0.133 h ([2]; 0.133 h, mean, read-out: Concentrations in Plasma of Rats after Intravenous Injection, Mean ± SD): 87.1 ± 1.35 ng/mL
concentration at 4 h ([2]; 4 h, individual rats, read-out: Concentrations in Plasma of Rats after Intravenous Injection): 27.2 ng/mL
concentration at 4 h ([2]; 4 h, mean, read-out: Concentrations in Plasma of Rats after Intravenous Injection, Mean ± SD): 29.6 ± 6.03 ng/mL
concentration at 6 h ([2]; 6 h, individual rats, read-out: Concentrations in Plasma of Rats after Intravenous Injection): 25.8 ng/mL
concentration at 6 h ([2]; 6 h, mean, read-out: Concentrations in Plasma of Rats after Intravenous Injection, Mean ± SD): 26.1 ± 1.64 ng/mL
concentration at 9 h ([2]; 9 h, individual rats, read-out: Concentrations in Plasma of Rats after Intravenous Injection): 14.9 ng/mL
concentration at 9 h ([2]; 9 h, mean, read-out: Concentrations in Plasma of Rats after Intravenous Injection, Mean ± SD): 15.9 ± 1.96 ng/mL
concentration at 12 h ([2]; 12 h, individual rats, read-out: Concentrations in Plasma of Rats after Intravenous Injection): 8.44 ng/mL
concentration at 12 h ([2]; 12 h, mean, read-out: Concentrations in Plasma of Rats after Intravenous Injection, Mean ± SD): 7.75 ± 0.54 ng/mL
concentration at 24 h ([2]; 24 h, individual rats, read-out: Concentrations in Plasma of Rats after Intravenous Injection): 3.38 ng/mL
concentration at 24 h ([2]; 24 h, mean, read-out: Concentrations in Plasma of Rats after Intravenous Injection, Mean ± SD): 3.13 ± 0.5 ng/mL
SMILES: [2H]C([2H])([2H])c1ccc(Sc2ccccc2N2CCNCC2)c(C([2H])([2H])[2H])c1 [XX, 1-{2-[2,4-bis(trideuteriomethyl)phenylsulfanyl]phenyl}piperazine hydrobromic acid salt]
effect on length of time that the mice stopped swimming vs blank control ([1]; 1.5 mg/kg gavage): markedly shortened
effect on length of time that the mice stopped swimming vs blank control ([1]; 3 mg/kg gavage): markedly shortened
Duration without Movement within the Last 4 min of the Whole 6 min ([1]; 1.5 mg/kg): 173.4 ± 36.1 s
Duration without Movement within the Last 4 min of the Whole 6 min ([1]; 3 mg/kg): 176.3 ± 37.5 s
Concentrations in Plasma of Rats after Intravenous Injection ([2]; 0.05 h after administration, individual rats): 123.2 ng/mL and 127.2 ng/mL and 121.4 ng/mL
